Results as given in ChEMBL document CHEMBL1201862, “PubChem BioAssay data set” (2004).
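Assay format: 96-well plates, 48-hour exposure. The concentration for 50% growth inhibition is given as GI50.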 Activity calls are given as the source filed them. Cut-off read from the data, not from the text of the source: active = GI50 up to about 1.1 µM and inactive = higher.

How the values were obtained:
Assay in all cases: NCI anticancer screen, dose series, 48 h
OVCAR-5 = system: OVCAR-5
M14 = system: M14
NCI-H460 = system: NCI-H460
NCI-H226 = system: NCI-H226
HOP-92 = system: HOP-92
NCI-H522 = system: NCI-H522
RXF 393 = system: RXF 393
UACC-257 = system: UACC-257
OVCAR-8 = system: OVCAR-8
IGROV-1 = system: IGROV-1
U-251 = system: U-251
NCI-H23 = system: NCI-H23
SNB-75 = system: SNB-75
LOX IMVI = system: LOX IMVI
A498 = system: A498
786-0 = system: 786-0
SW-620 = system: SW-620
ACHN = system: ACHN
SF-268 = system: SF-268

Measured: GI50

Cc1c(C)c2ccc3oc4ccccc4c3c2oc1=O
inactive: OVCAR-5 > 100 µM | M14 > 100 µM | NCI-H460 > 100 µM | NCI-H226 > 100 µM | HOP-92 52.6 µM | NCI-H522 > 100 µM | RXF 393 > 100 µM | UACC-257 > 100 µM | OVCAR-8 > 100 µM | IGROV-1 > 100 µM | U-251 > 100 µM | NCI-H23 > 100 µM | SNB-75 57.8 µM | LOX IMVI > 100 µM | A498 > 100 µM | 786-0 > 100 µM | SW-620 > 100 µM | ACHN > 100 µM | SF-268 > 100 µM

O=C1C(=O)N(c2ccc(Cl)cc2Cl)C(=O)C(=O)C1c1nc2ccccc2s1
inactive: OVCAR-5 > 100 µM | M14 > 100 µM | NCI-H460 > 100 µM | NCI-H226 > 74.8 µM | HOP-92 80.4 µM | NCI-H522 24.5 µM | RXF 393 > 100 µM | UACC-257 > 100 µM | OVCAR-8 > 100 µM | IGROV-1 > 100 µM | U-251 > 43.9 µM | NCI-H23 > 64 µM | SNB-75 20.9 µM | LOX IMVI > 100 µM | A498 > 100 µM | 786-0 > 100 µM | SW-620 > 78.3 µM | ACHN > 100 µM | SF-268 > 56.4 µM

COC1=CC(=O)NCCN1
inactive: OVCAR-5 > 100 µM | M14 > 100 µM | NCI-H460 29.3 µM | NCI-H226 > 100 µM | HOP-92 > 100 µM | NCI-H522 > 100 µM | RXF 393 > 100 µM | UACC-257 > 100 µM | OVCAR-8 > 100 µM | IGROV-1 > 100 µM | U-251 > 100 µM | NCI-H23 > 100 µM | SNB-75 > 100 µM | LOX IMVI 23.5 µM | A498 > 100 µM | 786-0 > 100 µM | SW-620 18.2 µM | ACHN > 100 µM | SF-268 > 100 µM

CCOC(=O)CCC(NC(=O)c1ccc(/N=C/c2nc3ccccc3nc2-c2ccccc2)cc1)C(=O)OCC (stereo unspecified)
inactive: OVCAR-5 > 100 µM | M14 82 µM | NCI-H460 > 100 µM | NCI-H226 > 100 µM | HOP-92 > 100 µM | NCI-H522 > 100 µM | RXF 393 64.9 µM | UACC-257 > 100 µM | OVCAR-8 13.9 µM | IGROV-1 > 100 µM | U-251 > 100 µM | NCI-H23 > 100 µM | SNB-75 20 µM | LOX IMVI > 100 µM | A498 > 100 µM | 786-0 > 100 µM | SW-620 > 100 µM | ACHN > 100 µM | SF-268 > 100 µM
